# Assay results published in ChEMBL document CHEMBL1201862, “PubChem BioAssay data set” (2004).
#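 Step 1: Grow cells in 96-well plates. Step 2: Expose to compound for 48 hours at 5 concentrations. Step 3: Interpolate endpoints linearly; if unreached, use highest concentration. At the GI50, growth is halved.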 Activity calls are given as the source filed them. Cut-off read from the data, not from the text of the source: active = GI50 up to about 1.1 µM and inactive = higher.
# Experiments:
# Experiment in all cases: inhibition of tumour cell growth, NCI panel, 48 h
# UACC-257 = tested on: UACC-257
# OVCAR-4 = tested on: OVCAR-4
# NCI-H522 = tested on: NCI-H522
# CCRF-CEM = tested on: CCRF-CEM
# HCC 2998 = tested on: HCC 2998
# EKVX = tested on: EKVX
# MDA-N = tested on: MDA-N
# COLO 205 = tested on: COLO 205
# SR = tested on: SR
# SK-MEL-5 = tested on: SK-MEL-5
# OVCAR-5 = tested on: OVCAR-5
# OVCAR-8 = tested on: OVCAR-8
# HL-60 = tested on: HL-60
# RPMI-8226 = tested on: RPMI-8226
# A498 = tested on: A498
# PC-3 = tested on: PC-3
# HCT-116 = tested on: HCT-116
# UO-31 = tested on: UO-31
# K562 = tested on: K562
# KM12 = tested on: KM12
# NCI-H23 = tested on: NCI-H23
# M14 = tested on: M14
# ACHN = tested on: ACHN
# SK-MEL-28 = tested on: SK-MEL-28
# NCI-H226 = tested on: NCI-H226
# 786-0 = tested on: 786-0
# SN12C = tested on: SN12C
# SF-295 = tested on: SF-295
# RXF 393 = tested on: RXF 393
# HOP-62 = tested on: HOP-62
# NCI-H460 = tested on: NCI-H460
# SNB-75 = tested on: SNB-75
# OVCAR-3 = tested on: OVCAR-3
# U-251 = tested on: U-251
# BT-549 = tested on: BT-549
# SK-MEL-2 = tested on: SK-MEL-2
# HT-29 = tested on: HT-29
# MDA-MB-435 = tested on: MDA-MB-435
# DU-145 = tested on: DU-145
# SF-268 = tested on: SF-268
# SW-620 = tested on: SW-620
# Malme-3M = tested on: Malme-3M
# A549 = tested on: A549
# Hs-578T = tested on: Hs-578T
# T47D = tested on: T47D
# LOX IMVI = tested on: LOX IMVI
# SF-539 = tested on: SF-539
# SK-OV-3 = tested on: SK-OV-3
# NCI/ADR-RES = tested on: NCI/ADR-RES
# HCT-15 = tested on: HCT-15
# SNB-19 = tested on: SNB-19
# MCF7 = tested on: MCF7
# MOLT-4 = tested on: MOLT-4
# CAKI-1 = tested on: CAKI-1
# IGROV-1 = tested on: IGROV-1
# HOP-92 = tested on: HOP-92
# UACC-62 = tested on: UACC-62
# TK-10 = tested on: TK-10
# MDA-MB-231 = tested on: MDA-MB-231
smiles,measurement,setting,value
[O-][n+]1onc2c3nn(-c4ccccc4)nc3ccc21,GI50,UACC-257,28.8 µM (inactive)
same,GI50,OVCAR-4,> 100 µM (inactive)
same,GI50,NCI-H522,> 96.2 µM (inactive)
same,GI50,CCRF-CEM,25.6 µM (inactive)
same,GI50,HCC 2998,15.6 µM (inactive)
same,GI50,EKVX,> 74.8 µM (inactive)
same,GI50,MDA-N,> 100 µM (inactive)
same,GI50,COLO 205,61.8 µM (inactive)
same,GI50,SR,4.43 µM (inactive)
same,GI50,SK-MEL-5,> 100 µM (inactive)
same,GI50,OVCAR-5,> 100 µM (inactive)
same,GI50,OVCAR-8,> 91.4 µM (inactive)
same,GI50,HL-60,2.35 µM (inactive)
same,GI50,RPMI-8226,6.32 µM (inactive)
same,GI50,A498,> 100 µM (inactive)
same,GI50,PC-3,> 83.2 µM (inactive)
same,GI50,HCT-116,> 100 µM (inactive)
same,GI50,UO-31,> 100 µM (inactive)
same,GI50,K562,> 100 µM (inactive)
same,GI50,KM12,18.6 µM (inactive)
same,GI50,NCI-H23,41.6 µM (inactive)
same,GI50,M14,> 100 µM (inactive)
same,GI50,ACHN,88.3 µM (inactive)
same,GI50,SK-MEL-28,> 100 µM (inactive)
same,GI50,NCI-H226,> 100 µM (inactive)
same,GI50,786-0,> 100 µM (inactive)
same,GI50,SN12C,> 100 µM (inactive)
same,GI50,SF-295,> 100 µM (inactive)
same,GI50,RXF 393,> 65.9 µM (inactive)
same,GI50,HOP-62,77.1 µM (inactive)
same,GI50,NCI-H460,> 100 µM (inactive)
same,GI50,SNB-75,> 100 µM (inactive)
same,GI50,OVCAR-3,22.2 µM (inactive)
same,GI50,U-251,> 100 µM (inactive)
same,GI50,BT-549,> 82.6 µM (inactive)
same,GI50,SK-MEL-2,> 100 µM (inactive)
same,GI50,HT-29,35.2 µM (inactive)
same,GI50,MDA-MB-435,> 100 µM (inactive)
same,GI50,DU-145,17.8 µM (inactive)
same,GI50,SF-268,> 86.7 µM (inactive)
same,GI50,SW-620,65.8 µM (inactive)
same,GI50,Malme-3M,> 100 µM (inactive)
same,GI50,A549,> 100 µM (inactive)
same,GI50,Hs-578T,32.1 µM (inactive)
same,GI50,T47D,7.4 µM (inactive)
same,GI50,LOX IMVI,13.2 µM (inactive)
same,GI50,SF-539,> 100 µM (inactive)
same,GI50,SK-OV-3,> 100 µM (inactive)
same,GI50,NCI/ADR-RES,> 100 µM (inactive)
same,GI50,HCT-15,49.5 µM
same,GI50,SNB-19,> 100 µM (inactive)
same,GI50,MCF7,7.69 µM (inactive)
same,GI50,MOLT-4,5.08 µM (inactive)
same,GI50,CAKI-1,> 100 µM (inactive)
same,GI50,IGROV-1,> 100 µM (inactive)
same,GI50,HOP-92,> 100 µM (inactive)
same,GI50,UACC-62,> 86.1 µM (inactive)
same,GI50,TK-10,> 71.1 µM (inactive)
same,GI50,MDA-MB-231,> 100 µM (inactive)
